Laboratory results: patent US7858621B2 (Amorepacific Corporation, priority 2006, dated 2010)
pIC50: −log10 of the molar value.

Each molecule was assayed against T1, vanilloid receptor (Rattus norvegicus, UniProt O35433) (assay: 45Ca influx test in cultured neonatal rat DRG neurons, inhibition of capsaicin response). Details: neonatal rat DRG neurons, capsaicin 0.5 μM, 45Ca influx; read-out: Antagonist Calcium Uptake Test (IC50).
T1 construct: DRG nerve cells from the primary culture of 2 days were equilibrated; endogenous in cells; host or cells: primary culture of dorsal root ganglion neurons from neonatal SD rats
Format: cell-based
How it was run: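 Neonatal SD rat DRG neurons, cultured 2 days with NGF (200 ng/ml) and Ara-C, were washed in HEPES (10 mM, pH 7.4)-buffered Ca/Mg-free HBSS. Test compound was added with capsaicin (final 0.5 μM) and 45Ca (10 μCi/ml) for 10 min at room temperature; 45Ca uptake counted by scintillation after SDS elution.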

T1 sequence (O35433 whole entry): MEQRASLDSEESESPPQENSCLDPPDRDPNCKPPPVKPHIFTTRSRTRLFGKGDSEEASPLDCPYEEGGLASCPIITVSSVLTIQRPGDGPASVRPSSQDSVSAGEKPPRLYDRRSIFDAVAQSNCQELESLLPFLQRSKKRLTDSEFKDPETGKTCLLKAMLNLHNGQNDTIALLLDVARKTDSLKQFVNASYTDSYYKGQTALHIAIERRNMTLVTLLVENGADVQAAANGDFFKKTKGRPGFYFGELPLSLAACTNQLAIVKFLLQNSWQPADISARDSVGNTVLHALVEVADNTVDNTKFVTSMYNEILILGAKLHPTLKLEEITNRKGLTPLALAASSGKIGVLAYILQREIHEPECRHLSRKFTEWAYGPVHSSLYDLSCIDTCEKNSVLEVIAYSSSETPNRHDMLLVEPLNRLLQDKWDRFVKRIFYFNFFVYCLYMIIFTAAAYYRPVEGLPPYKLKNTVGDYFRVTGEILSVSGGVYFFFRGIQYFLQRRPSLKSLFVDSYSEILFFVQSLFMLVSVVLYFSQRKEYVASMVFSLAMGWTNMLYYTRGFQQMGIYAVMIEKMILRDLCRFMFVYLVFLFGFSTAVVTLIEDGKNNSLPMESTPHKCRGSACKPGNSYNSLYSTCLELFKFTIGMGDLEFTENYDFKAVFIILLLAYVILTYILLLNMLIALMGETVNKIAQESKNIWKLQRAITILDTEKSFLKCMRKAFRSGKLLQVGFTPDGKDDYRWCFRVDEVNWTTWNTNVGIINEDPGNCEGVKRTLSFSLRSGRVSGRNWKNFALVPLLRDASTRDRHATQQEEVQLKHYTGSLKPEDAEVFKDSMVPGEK

| Compound | pIC50 |
| --- | --- |
| C#Cc1cc(CNC(=O)/C=C/c2ccc(C(F)(F)F)nc2/C=C/c2ccccc2)cc(F)c1NS(C)(=O)=O [Example 157, N-(3-Ethynyl-5-fluoro-4-methanesulfonylamino-benzyl)-3-(2-styryl-6-trifluoromethyl-pyridin-3-yl)-acrylamide] | 6.35 |
| CCCN(C)c1nc(C(F)(F)F)ccc1/C=C/C(=O)NCc1ccc(NS(C)(=O)=O)c(F)c1 [Example 158, N-(3-Fluoro-4-methanesulfonylamino-benzyl)-3-[2-(N-methyl-N-propyl-amino)-6-trifluoromethyl-pyridin-3-yl]-acrylamide] | 6.32 |
| C#Cc1cc(CNC(=O)/C=C/c2ccc(C(F)(F)F)nc2N(C)CCC)cc(F)c1NS(C)(=O)=O [Example 159, N-(3-Ethynyl-5-fluoro-4-methanesulfonylamino-benzyl)-3-[2-(N-methyl-N-propyl-amino)-6-trifluoromethyl-pyridin-3-yl]-acrylamide] | 6.57 |
| CCOCc1nc(C(F)(F)F)ccc1/C=C/C(=O)NCc1ccc(NS(C)(=O)=O)c(F)c1 [Example 160, N-(3-Fluoro-4-methanesulfonylamino-benzyl)-3-(2-ethoxymethyl-6-trifluoromethyl-pyridin-3-yl)-acrylamide] | 5.62 |
| C#Cc1cc(CNC(=O)/C=C/c2ccc(C(F)(F)F)nc2COCC)cc(F)c1NS(C)(=O)=O [Example 161, N-(3-Ethynyl-5-fluoro-4-methanesulfonylamino-benzyl)-3-(2-ethoxymethyl-6-trifluoromethyl-pyridin-3-yl)-acrylamide] | 6.26 |
| CCC(C)Oc1nc(C(F)(F)F)ccc1/C=C/C(=O)NCc1ccc(NS(C)(=O)=O)c(C)c1 (stereo not shown) [Example 162, 3-(2-sec-Butoxy-6-trifluoromethyl-pyridin-3-yl)-N-(4-methanesulfonylamino-3-methyl-benzyl)-acrylamide] | 6.92 |
| CC(C)Cc1nc(C(F)(F)F)ccc1/C=C/C(=O)NCc1cc(F)c(NS(C)(=O)=O)c(C#N)c1 [Example 163, N-(3-Cyano-5-fluoro-4-methanesulfonylamino-benzyl)-3-(2-isobutyl-6-trifluoromethyl-pyridin-3-yl)-acrylamide] | 6.82 |
| Cc1cc(CNC(=O)/C=C/c2ccc(C(F)(F)F)nc2CC(C)C)cc(F)c1NS(C)(=O)=O [Example 164, N-(3-Fluoro-4-methanesulfonylamino-5-methyl-benzyl)-3-(2-isobutyl-6-trifluoromethyl-pyridin-3-yl)-acrylamide] | 7.08 |
| C[C@@H](NC(=O)/C=C/c1ccc(C(F)(F)F)nc1N(C)c1ccccc1)c1ccc(NS(C)(=O)=O)c(F)c1 [Example 165, (R)—N-[1-(3-Fluoro-4-methanesulfonylamino-phenyl)-ethyl]-3-[2-(methyl-phenylamino)-6-trifluoromethyl-pyridin-3-yl]-acrylamide] | 6.80 |
| C#Cc1cc(CNC(=O)/C=C/c2ccc(C(F)(F)F)nc2N(C)c2ccccc2)cc(F)c1NS(C)(=O)=O [Example 166, N-(3-Ethynyl-5-fluoro-4-methanesulfonylamino-benzyl)-3-[2-(methyl-phenylamino)-6-trifluoromethyl-pyridin-3-yl]-acrylamide] | 7.16 |
| Cc1cc(CNC(=O)/C=C/c2ccc(C(F)(F)F)nc2N(C)c2ccccc2)ccc1NS(C)(=O)=O [Example 167, N-(4-methanesulfonylamino-3-methyl-benzyl)-3-[2-(methyl-phenylamino)-6-trifluoromethyl-pyridin-3-yl]-acrylamide] | 6.92 |
| CCCCOc1nc(C(F)(F)F)ccc1/C=C/C(=O)NCc1cc(F)c(NS(C)(=O)=O)c(C(F)(F)F)c1 [Example 168, 3-(2-Butoxy-6-trifluoromethyl-pyridin-3-yl)-N-(3-fluoro-4-methanesulfonylamino-5-trifluoromethyl-benzyl)-acrylamide] | 5.74 |
| CCCCOc1nc(C(F)(F)F)ccc1/C=C/C(=O)N[C@H](C)c1ccc(NS(C)(=O)=O)c(F)c1 [Example 169, (R)-3-(2-Butoxy-6-trifluoromethyl-pyridin-3-yl)-N-[1-(3-fluoro-4-methanesulfonylamino-phenyl)-ethyl]-acrylamide] | 6.77 |
| CCCCOc1nc(C(F)(F)F)ccc1/C=C/C(=O)NCc1ccc(NS(C)(=O)=O)c(C)c1 [Example 170, 3-(2-Butoxy-6-trifluoromethyl-pyridin-3-yl)-N-(4-methanesulfonylamino-3-methyl-benzyl)-acrylamide] | 6.47 |
| C#Cc1cc(CNC(=O)/C=C/c2ccc(C(F)(F)F)nc2SCC)cc(F)c1NS(C)(=O)=O [Example 171, 3-(2-Ethylthio-6-trifluoromethyl-pyridin-3-yl)-N-(3-ethynyl-5-fluoro-4-methanesulfonylamino-benzyl)-acrylamide] | 6.74 |
| Cc1cc(CNC(=O)/C=C/c2ccc(C(F)(F)F)nc2CCc2ccccc2)ccc1NS(C)(=O)=O [Example 172, N-(4-Methanesulfonylamino-3-methyl-benzyl)-3-(2-phenethyl-6-trifluoromethyl-pyridin-3-yl)-acrylamide] | 7.16 |

| Compound | pIC50 |
| --- | --- |
| Cc1cc(CNC(=O)/C=C/c2ccc(C(F)(F)F)nc2CCc2ccccc2)cc(F)c1NS(C)(=O)=O [Example 173, N-(3-Fluoro-4-methanesulfonylamino-5-methyl-benzyl)-3-(2-phenethyl-6-trifluoromethyl-pyridin-3-yl)-acrylamide] | 6.70 |
| Cc1cc(CNC(=O)/C=C/c2ccc(C(F)(F)F)nc2CC(C)C)ccc1NS(C)(=O)=O [Example 174, 3-(2-Isobutyl-6-trifluoromethyl-pyridin-3-yl)-N-(4-methanesulfonylamino-3-methyl-benzyl)-acrylamide] | 7.15 |
| CC(C)Cc1nc(C(F)(F)F)ccc1/C=C/C(=O)N[C@H](C)c1ccc(NS(C)(=O)=O)c(F)c1 [Example 175, (R)—N-[1-(3-Fluoro-4-methanesulfonylamino-phenyl)-ethyl]-3-(2-isobutyl-6-trifluoromethyl-pyridin-3-yl)-acrylamide] | 7.62 |
| CCC(C)Nc1nc(C(F)(F)F)ccc1/C=C/C(=O)NCc1ccc(NS(C)(=O)=O)c(C)c1 (stereo not shown) [Example 176, 3-(2-sec-Butylamino-6-trifluoromethyl-pyridin-3-yl)-N-(4-methanesulfonylamino-3-methyl-benzyl)-acrylamide] | 7.24 |
| C#Cc1cc(CNC(=O)/C=C/c2ccc(C(F)(F)F)nc2SC(C)C)cc(F)c1NS(C)(=O)=O [Example 177, N-(3-Ethynyl-5-fluoro-4-methanesulfonylamino-benzyl)-3-(2-isopropylthio-6-trifluoromethyl-pyridin-3-yl)-acrylamide] | 6.70 |
| CC(C)Sc1nc(C(F)(F)F)ccc1/C=C/C(=O)NCc1ccc(NS(C)(=O)=O)c(F)c1 [Example 178, N-(3-Fluoro-4-methanesulfonylamino-benzyl)-3-(2-isopropylthio-6-trifluoromethyl-pyridin-3-yl)-acrylamide] | 6.04 |
| CS(=O)(=O)Nc1ccc(CNC(=O)/C=C/c2ccc(C(F)(F)F)nc2-c2cccc(F)c2)cc1F [Example 179, N-(3-Fluoro-4-methanesulfonylamino-benzyl)-3-[2-(3-fluoro-phenyl)-6-trifluoromethyl-pyridin-3-yl]-acrylamide] | 6.11 |
| Cc1cc(CNC(=O)/C=C/c2ccc(C(F)(F)F)nc2-c2cccc(F)c2)cc(F)c1NS(C)(=O)=O [Example 180, N-(3-Fluoro-4-methanesulfonylamino-5-methyl-benzyl)-3-[2-(3-fluoro-phenyl)-6-trifluoromethyl-pyridin-3-yl]-acrylamide] | 6.34 |
| C[C@@H](NC(=O)/C=C/c1ccc(C(F)(F)F)nc1-c1cccc(F)c1)c1ccc(NS(C)(=O)=O)c(F)c1 [Example 181, (R)—N-[1-(3-Fluoro-4-methanesulfonylamino-phenyl)-ethyl]-3-[2-(3-fluoro-phenyl)-6-trifluoromethyl-pyridin-3-yl]-acrylamide] | 6.57 |
| Cc1cc(CNC(=O)/C=C/c2ccc(C(F)(F)F)nc2-c2cccc(F)c2)ccc1NS(C)(=O)=O [Example 182, 3-[2-(3-Fluoro-phenyl)-6-trifluoromethyl-pyridin-3-yl]-N-(4-methanesulfonylamino-3-methyl-benzyl)-acrylamide] | 6.40 |
| C[C@@H](NC(=O)/C=C/c1ccc(C(F)(F)F)nc1N1CCCCC1)c1ccc(NS(C)(=O)=O)c(F)c1 [Example 183, (R)—N-[1-(3-Fluoro-4-methanesulfonylamino-phenyl)-ethyl]-3-(2-piperid-1-yl-6-trifluoromethyl-pyridin-3-yl)-acrylamide] | 6.66 |
| Cc1cc(CNC(=O)/C=C/c2ccc(C(F)(F)F)nc2N2CCCCC2)ccc1NS(C)(=O)=O [Example 184, N-(4-Methanesulfonylamino-3-methyl-benzyl)-3-(2-piperid-1-yl-6-trifluoromethyl-pyridin-3-yl)-acrylamide] | 6.64 |
| C#Cc1cc(CNC(=O)/C=C/c2ccc(C(F)(F)F)nc2SCCC)cc(F)c1NS(C)(=O)=O [Example 185, N-(3-Ethynyl-5-fluoro-4-methanesulfonylamino-benzyl)-3-(2-propylthio-6-trifluoromethyl-pyridin-3-yl)-acrylamide] | 6.55 |
| CCCSc1nc(C(F)(F)F)ccc1/C=C/C(=O)NCc1ccc(NS(C)(=O)=O)c(C)c1 [Example 186, N-(4-Methanesulfonylamino-3-methyl-benzyl)-3-(2-propylthio-6-trifluoromethyl-pyridin-3-yl)-acrylamide] | 6.29 |
| CCCCNc1nc(C(F)(F)F)ccc1/C=C/C(=O)NCc1ccc(NS(C)(=O)=O)c(C)c1 [Example 187, N-(4-Methanesulfonylamino-3-methyl-benzyl)-3-(2-butylamino-6-trifluoromethyl-pyridin-3-yl)-acrylamide] | 7.12 |
